Test in all cases: growth of human tumour cells (NCI), 48 h
Assay [1] has as its system RPMI-8226 leukemia.
The test system of assay [2] is HCC-2998 colon.
Assay [3] relates to HCT-116 colon.
The test system of assay [4] is K-562 leukemia.
The test system of assay [5] is DU-145 prostate.
Assay [6] has as its system MCF7 breast.
Assay [7] deals with OVCAR-8 ovarian.
The subject of assay [8] is HCT-15 colon.
For assay [9], the system named is RXF 393 renal.
Assay [10] concerns SF-295 CNS.

Values joined by “and” are separate entries in the source; they are usually repeats but may differ in a detail not shown here. Equal values may be shown once.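 In this assay, cells in 96-well plates receive the compound at five concentrations for 48 hours. Endpoints are linearly interpolated between the surrounding concentrations. At the GI50, growth is halved. TGI is the concentration that stops growth completely.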

Turning to `CC(C)[C@H]1CC[C@H]2[C@@H](CC[C@H]3[C@](C)(CN)CCC[C@]23C)C1`, the GI50 was 2.9 µM in assay [1]; 1.79 µM in [2]; 1.72 µM in assay [3]; 2.25 µM in assay [4]; 1.95 µM in [5]; 1.51 µM in assay [6]. Moreover, the GI50 in [7] is 2.61 µM; in assay [8], 1.81 µM; in [9] it was 2 µM; in [10], 1.83 µM. Besides, the TGI in [1] came out at 12.2 µM; in [2] it was 3.18 µM; in assay [3] it was 3.09 µM; in assay [4], 5.31 µM; in [5] it was 3.58 µM; in assay [6], 2.85 µM. Further, the TGI in assay [7] came out at 5.62 µM; in assay [8], 3.98 µM; in assay [9], 3.84 µM; in assay [10] it was 3.87 µM.

Consider `S=C(N/N=C(/c1ccccc1)c1ccccn1)N1CCCCC1`, for which the GI50 was less than 0.001 µM in assay [1]; less than 0.001 µM in assay [3]; less than 0.001 µM in assay [4]; 1.11 µM in assay [5]; less than 0.001 µM in assay [7]; less than 0.001 µM in [8]. The values for the GI50 in [9] and in assay [10] were 0.0129 µM and 0.188 µM, respectively. The TGI is 2.1 µM in assay [2]; 1.6 µM and 1.56 µM in assay [3]; less than 0.001 µM in [4]; 2.32 µM and 2.87 µM in assay [5]; 4.12 µM in [6]; 1.96 µM and 1.69 µM in [7]. Further, the TGI was 2.22 µM and 3.94 µM in assay [8]; 1.43 µM and 3.38 µM in assay [9]; 1.75 µM and 2.11 µM in assay [10].

As for `Oc1ccc(CN2CCC(N3CCOCC3)CC2)c2cccnc12`, the GI50 in [1] is 32.7 µM; in [2], 51.7 µM; in assay [3], 34.4 µM; in assay [4] it was 28.1 µM; in assay [5], 31.3 µM; in assay [6], 22.7 µM. The GI50 in assay [7] was 34.3 µM; in assay [8], 36.5 µM; in assay [9] it was 23 µM; in assay [10], 39.8 µM. Also, the TGI was greater than 100 µM in assay [1]; greater than 100 µM in assay [2]; greater than 100 µM in [3]; greater than 100 µM in assay [4]; greater than 100 µM in assay [5]; 76.8 µM in assay [6]. In addition, the TGI was greater than 100 µM in assay [7], greater than 100 µM in assay [8], 95.5 µM in assay [9] and greater than 100 µM in [10].

Take `COc1cc2cc(C(=O)CCC(=O)O)sc2cc1OC`: the GI50 in assay [1], in [2], in [3], in assay [4], in assay [5] and in assay [6] was greater than 100 µM throughout. The GI50 in assay [7] was greater than 100 µM; in assay [8], greater than 100 µM; in assay [9], 33.4 µM; in assay [10], greater than 100 µM. The TGI in [1], in [2], in assay [3], in assay [4], in [5] and in assay [6] was greater than 100 µM in each case. Also, the TGI in assay [7], in [8], in assay [9] and in [10] was greater than 100 µM each time.

With `O=S(=O)(Cc1ccc(Cl)cc1Cl)c1ccc(Cl)cc1`, the GI50 in [1] was 1.14 µM; in [2], 1.09 µM; in assay [3] it was 0.471 µM; in assay [4] it was 0.303 µM; in [5], 1.74 µM; in [6] it was 0.341 µM. In addition, the GI50 was 1.22 µM in assay [7], 0.419 µM in assay [8], 1.4 µM in [9] and 0.495 µM in assay [10]. Further, the TGI was greater than 69.7 µM in assay [1]; 8.97 µM in assay [2]; greater than 100 µM in assay [3]; greater than 100 µM in assay [4]; 16.1 µM in [5]; greater than 100 µM in [6]. Further, the TGI was greater than 100 µM in assay [7], greater than 100 µM in assay [8], 7.55 µM in assay [9] and 10.8 µM in assay [10].

Turning to `COC(=O)C1=C(C)NC(C)=C(C(=O)OC)C1/C=C(\Cl)c1ccc(Cl)c(Cl)c1`, the GI50 in assay [1] is 1.8 µM; in assay [2], 17.3 µM; in assay [3] it was 12.2 µM; in assay [4], 10.6 µM; in assay [5] it was 16.5 µM; in assay [6], 11.4 µM. Further, the GI50 is 36.1 µM in assay [7], 12.3 µM in [8], 13.4 µM in [9] and 6.26 µM in [10]. Also, the TGI in assay [1] was determined as 13.7 µM; in assay [2], 31.1 µM; in assay [3], 24.6 µM; in assay [4], 40.3 µM; in assay [5] it was 32 µM; in [6] it was 33.5 µM. Also, the TGI in assay [7] was greater than 100 µM; in [8], 26.9 µM; in [9] it was 27.2 µM; in [10], 21.6 µM.

On to `O=c1c2c3c(sc2n2c(-c4cc(-c5ccccc5)no4)nnc2n1Cc1ccccc1)CCCC3`, for which the GI50 in assay [1] was 4.23 µM; in assay [2], 20.7 µM; in assay [3] it was 10.3 µM; in assay [4], 7.01 µM; in assay [5], 19.6 µM; in assay [6] it was 16.3 µM. The GI50 is 21.4 µM in [7], 11.6 µM in assay [8], 4.13 µM in assay [9] and 6.53 µM in [10]. In addition, the TGI in assay [1] was greater than 48.8 µM; in assay [2] it was greater than 76.6 µM; in assay [3], 24.5 µM; in assay [4], greater than 68.1 µM; in assay [5], greater than 93.3 µM; in [6], greater than 76.3 µM. In addition, the TGI in [7] was greater than 100 µM; in assay [8], greater than 83.4 µM; in [9], 26.7 µM; in assay [10], 31.7 µM.

The values are drawn from PubChem BioAssay (NCI).
